Consider 10 molecules from patent US6057359A, “Spontaneously dispersible concentrates comprising esters of baccatin-III compounds having antitumor and antiviral activity” (Marigen S.A., priority 1997, dated 2000).

For data set [1], the system named is Py6 cells (Virus transformed 3T3 mouse-fibroblasts). As to the kind of experiment: Test of cell toxicity / cytotoxicity of MARIGENOL concentrates on Py6 cells (plaque assay, serial dilution). Type of data set: cell-based. To be noted: for in dilution active up to 1: (microemulsion ME 1:100): dilution of ME 1:100, given in Mio. How it is done:
A biological assay system using microtiter plates and serial dilutions has been developed. Batches of 10^4 tumour cells per ml were set up in culture medium RPMI 1640 and inactivated with 10% of fetal calf serum (GIBCO); they are spread at a density low enough to enable them to grow during the assay, in non-confluent monolayers. Samples are added after 6 to 24 hours, with 100 μl per row, to which 100 μl of medium are added in the first well. Half of this mixture is withdrawn, transferred into the next well and again treated with 100 μl of medium, etc.
[…] They are then stained and fixed using 0.1% crystal violet (Fluka, Buchs) in a solution of 70% of methanol, 1% of formaldehyde and 29% of water. The samples are evaluated under the microscope, magnification 300×. The greatest cytotoxic dilution is determined. The samples can also be evaluated quantitatively by means of scanning and absorption measurement in a spectrophotometer.
N.B.: On the subject of the eternalized Py6-cells cf.: "Biochemistry", Coordinating Editor Geoffrey L. Zubay, Addison-Wesley Publishing Company, 1983, p.1079.

Data set [2] concerns LEUKEMIA K 562. Kind of data set: Vitality/proliferation test (Tritium), leukemia K 562. The class given is cell-based, human. As to conditions: controls 50'037 cpm. An excerpt: (§1) 4.0 Comparative assays with human tumor cell lines
(§2) VITALITY TEST/1%-MARIGENOL-CONCENTRATE
(§3) 1 × 10^4 cells per well
(§4) Proliferation test (Tritium: 1 μCi/well H^+)

In data set [3] the test system is LEUKEMIA DAUDI-LINE. As to the kind of experiment: Vitality/proliferation test (Tritium), leukemia Daudi-line. As to conditions: controls 23'090 cpm. The class given is cell-based, human.
Text: as §1, §2, §3, §4

In data set [4] the test system is Herpes-Virus (Herpes Simplex, HSV). As to the kind of experiment: Antiviral/virucidal efficacy against HSV, plaque reduction in VERO cells. The class given is cell-based. To be noted: compared to simple medium, 2880 min. How it is done:
(§5) The antiviral/virucidal efficacy against HSV of an aqueous microemulsion prepared with appropriate MARIGENOL®-concentrates was assessed on a confluent monolayer culture of VERO cells (i.e. "African green monkey kidney cells"). The host cells were pretreated during 3 h at 4° C. with an inventive microemulsion or with culture medium alone and then infected with HSV at a constant dose of 10^4 plaque forming units (PFU). After virus absorption during 1 h, and subsequent addition of 2% methylcellulose in order to limit virus spreading, cells were cultured in MEM medium+2% foetal calf serum for 48 h, then fixed and stained with 1% crystal violet in methanol. The reduction of viral titre was expressed as percent reduction of plaques of lysis observed in pre-treated cells, compared to controls.
Infection was also detected by IFA at 24 h after inoculation, using a Mab specific for a glycoprotein common to HSV-1/HSV-2 (clone FQ 12, Argene Biosoft, BIOLINE, Torino).
The following test substances were assessed as concentrates in aqueous dilution (starting with a microemulsion 1:100): […]

In data set [5] the test system is VERO cells. As to the kind of experiment: Cell lysis in VERO cell layers. As to conditions: dilution 1:1'000; plaque reduction table. Type of data set: cell-based, African green monkey. How it is done: as §5
Data set [6] deals with HIV isolates from patients (strains 21/4 and 4/5). Kind of data set: Effect on HIV infectivity, residual HIV titre (direct antiviral efficacy). The class given is cell-based. How it is done:
Aliquote amounts of two HIV isolates from patients (strains 21/4 and 4/5) resuspended in complete RPMI medium at a titre of 300 CCID50 /ml were incubated during 3 hours, +4° C. with MARIGENOL®-concentrate, in the form of an aqueous microemulsion, at concentrations ranging from 10^-2 to 10^-5 in complete medium, as well as with ("empty") carrier concentrate and with medium alone as controls.
After pre-incubation, residual HIV titre was assessed by the CCID50 method (Cell-culture infecting dose 50%). Briefly, serial twofold dilutions were prepared from each of the six virus suspensions, and 200 μl of each dilution were incubated for 90 minutes with MT-4 cell pellets prepared as stated before (see 7.1). At the end of incubation, pellets were brought to initial cell concentration by adding appropriate amounts of complete RPMI medium to each tube, whose content was then distributed into 8 wells of a flat-bottom microtitre plate in 200 μl volumes, each vertical row coresponding to a dilution. After 5 days of incubation, cell viability was assessed by the MTT test as stated above, and the HIV titre was expressed as the reciprocal of that dilution which infects 4 out of 8 wells (50%) in a row. A well was considered infected when its O.D. readout at 550 nm was lower than the average readout of 8 control wells minus 2.8 times the standard error of the mean (lower 95% confidence limit).

In the case of `C=CCCCCCCCCC(=O)O[C@H]1C[C@@]2(O)[C@@H](OC(=O)c3ccccc3)[C@@H]3[C@]4(OC(C)=O)CO[C@@H]4C[C@H](OC(=O)CCCCCCCCC=C)[C@@]3(C)C(=O)[C@H](OC(C)=O)C(=C1C)C2(C)C` [BACCATIN III-DI-UNDECENOATE, 7,13-Baccatin-III-diundecenoate], the results for the “in dilution active up to 1: (calculated on active substance content, A.S.)” value in data set [1] (24 h exposure), in data set [1] (48 h exposure) and in data set [1] (72 h exposure) were 12.8 Mio, 25.6 Mio and 100 Mio, respectively. Also, the “in dilution active up to 1: (microemulsion ME 1:100)” value in data set [1] (72 h exposure) stood at 1 Mio. Moreover, the Proliferation test % amounted to 0.9% in data set [2] (10^-3); 1.3% in data set [2] (10^-4); 9.5% in data set [2] (10^-5); 1.2% in data set [3] (10^-3); 2.8% in data set [3] (10^-4); 41.7% in data set [3] (10^-5). For the same molecule, the Proliferation test cpm in data set [2] (10^-3) worked out at 466 cpm; in data set [2] (10^-4), 665 cpm; in data set [3] (10^-3), 293 cpm; in data set [3] (10^-4), 653 cpm.
On to `CCCCCCCCCCCCCCCC(=O)Oc1cc(OC(=O)CCCCCCCCCCCCCCC)c2c(=O)cc(-c3ccccc3)oc2c1` [CHRYSIN-DI-PALMITATE], for which the “in dilution active up to 1: (calculated on active substance content, A.S.)” value is 12.8 Mio in data set [1] (24 h exposure), 51.2 Mio in data set [1] (48 h exposure) and 51.2 Mio in data set [1] (72 h exposure).
Consider `CCCCCCCCCCCCCCCC(=O)Oc1ccc(-c2oc3cc(OC(=O)CCCCCCCCCCCCCCC)cc(OC(=O)CCCCCCCCCCCCCCC)c3c(=O)c2OC(=O)CCCCCCCCCCCCCCC)c(OC(=O)CCCCCCCCCCCCCCC)c1` [MOREN-PENTA-PALMITATE], for which the entries for the “in dilution active up to 1: (calculated on active substance content, A.S.)” value in data set [1] (24 h exposure), in data set [1] (48 h exposure) and in data set [1] (72 h exposure) were 6.4 Mio, 51.2 Mio and 51.2 Mio, respectively.
For 7-Baccatin III-all trans-retinoate, the “in dilution active up to 1: (calculated on active substance content, A.S.)” value in data set [1] (24 h exposure) is recorded as 12.8 Mio; in data set [1] (48 h exposure), 25.6 Mio; in data set [1] (72 h exposure), 25.6 Mio. In addition, the Proliferation test % in data set [2] (10^-3) was determined as 0.8%; in data set [2] (10^-4), 1.6%; in data set [2] (10^-5), 15.0%; in data set [3] (10^-3), 1.1%; in data set [3] (10^-4), 1.7%; in data set [3] (10^-5) it was 52.7%. Further, the Proliferation test cpm was 415 cpm in data set [2] (10^-3), 822 cpm in data set [2] (10^-4), 256 cpm in data set [3] (10^-3) and 412 cpm in data set [3] (10^-4).
Take `CC(=O)O[C@H]1C(=O)[C@@]2(C)[C@H]([C@H](OC(=O)c3ccccc3)[C@]3(O)C[C@H](OC(=O)[C@H](O)[C@@H](NC(=O)c4ccccc4)c4ccccc4)C(C)=C1C3(C)C)[C@]1(OC(C)=O)CO[C@@H]1C[C@@H]2O` [TAXOL-A.S., Taxol (Paclitaxel), reference compound]: the “in dilution active up to 1: (calculated on active substance content, A.S.)” value is recorded as 6.4 Mio in data set [1] (24 h exposure), 25.6 Mio in data set [1] (48 h exposure) and 25.6 Mio in data set [1] (72 h exposure). Besides, the Proliferation test % in data set [2] (10^-3) turned out to be 1.3%; in data set [2] (10^-4) it was 1.6%; in data set [2] (10^-5) it was 7.1%; in data set [3] (10^-3), 2.3%; in data set [3] (10^-4), 2.9%; in data set [3] (10^-5), 69.6%. For the same molecule, the Proliferation test cpm in data set [2] (10^-3) is 679 cpm; in data set [2] (10^-4), 830 cpm; in data set [3] (10^-3), 552 cpm; in data set [3] (10^-4), 672 cpm.
For `CCCCCCCCCCCC(=O)O[C@H]1C[C@@]2(O)[C@@H](OC(=O)c3ccccc3)[C@@H]3[C@]4(OC(C)=O)CO[C@@H]4C[C@H](OC(=O)CCCCCCCCCCC)[C@@]3(C)C(=O)[C@H](OC(C)=O)C(=C1C)C2(C)C` [BACCATIN III-DI-LAURATE, 7,13-Dilauroylbaccatin-III], the “in dilution active up to 1: (calculated on active substance content, A.S.)” value was 12.8 Mio in data set [1] (24 h exposure), 12.8 Mio in data set [1] (48 h exposure) and 25.6 Mio in data set [1] (72 h exposure). For the same molecule, the Proliferation test % in data set [2] (10^-3) is listed as 1.1%; in data set [2] (10^-4) it was 1.3%; in data set [2] (10^-5) it was 6.1%; in data set [3] (10^-3), 1.4%; in data set [3] (10^-4), 1.9%; in data set [3] (10^-5), 38.3%. The Proliferation test cpm stood at 585 cpm in data set [2] (10^-3), 651 cpm in data set [2] (10^-4), 346 cpm in data set [3] (10^-3) and 455 cpm in data set [3] (10^-4).
Take `CCCCCCCCCCCCCCCCCCCC(=O)O[C@H]1CC[C@@]2(C)C(=CC[C@H]3[C@@H]4CC[C@H]([C@H](C)CC[C@@H](CC)C(C)C)[C@@]4(C)CC[C@@H]32)C1` [β-Sitosteryl-Arachidate, 3β-Stigmast-5-en-3-arachidate]: the “Percent reduction of plaques in VERO cell monolayers” value in data set [4] (dilution 1:10'000) was 76%; in data set [4] (dilution 1:100'000), 5%. Further, in data set [5], the Cell-Lysis entry is listed as “Cell-Lysis”.
With `C=CCCCCCCCCC(=O)O[C@H]1CC[C@@]2(C)C(=CC=C3[C@@H]4CC[C@H]([C@H](C)/C=C/[C@H](C)C(C)C)[C@@]4(C)CC[C@@H]32)C1` [ERGOSTERYL-10-UNDECENOATE, (3β, 22E)-Ergosta-5,7,22-triene-3-ol-10-undecenoate], the “RESIDUAL HIV TITRE (CCID50)” value in data set [6] (concentrate 1'000 ppm, active substance 10 ppm, mean titre of 2 strains, 3 h, +4° C.) is recorded as 25 CCID50. Besides, the “inhibition of HIV infectivity” value in data set [6] (pre-treatment with 1%-concentrate) is on record as “somewhat less potent inhibition”.
With `CCCCCCCCCCCC(=O)Oc1cc(OC(=O)CCCCCCCCCCC)c2c(=O)cc(-c3ccccc3)oc2c1` [CHRYSIN-DI-LAURATE], the “in dilution active up to 1: (calculated on active substance content, A.S.)” value is 12.8 Mio in data set [1] (24 h exposure), 51.2 Mio in data set [1] (48 h exposure) and 100 Mio in data set [1] (72 h exposure). Also, the “in dilution active up to 1: (microemulsion ME 1:100)” value in data set [1] (72 h exposure) is on record as 1 Mio.
As to `CCCCCCCCCCCC(=O)Oc1ccc(-c2oc3cc(OC(=O)CCCCCCCCCCC)cc(OC(=O)CCCCCCCCCCC)c3c(=O)c2OC(=O)CCCCCCCCCCC)c(OC(=O)CCCCCCCCCCC)c1` [MORIN-PENTA-LAURATE], the “in dilution active up to 1: (calculated on active substance content, A.S.)” value was 12.8 Mio in data set [1] (24 h exposure), 100 Mio in data set [1] (48 h exposure) and 100 Mio in data set [1] (72 h exposure). In addition, the “in dilution active up to 1: (microemulsion ME 1:100)” value in data set [1] (48 h exposure) and in data set [1] (72 h exposure) was 1 Mio throughout.
